Reference: patent US7026281B1, “Antagonistic analogs of GH-RH inhibiting IGF-I and -II” (The Administrators of the Tulane Educational Fund, priority 1998, dated 2006)
Marks after values point to notes of the source that are not given here.

How the values were obtained:
[1] = test system: Estrogen independent MXT mouse mammary tumors; test: MXT mouse mammary tumors in BDF mice; assay type: in vivo; details: 20 μg per day
Procedure: Estrogen independent MXT tumors were transplanted sc. to female BDF mice. One day after transplantation, the mice were divided into groups of 10 animals each, and the treatment was started. The mice in groups 1, 2, 3, and 4 received single injections daily of various GH-RH antagonists sc. at 20 μg dose per day for 18 days. In groups 5 and 6, the peptides were administered by Alzet osmotic pumps releasing a daily amount of 20 μg peptide. Tumors were measured regularly, and tumor volume was calculated. The mice were sacrificed on day 18 and tumor weights were measured.

[2] = test system: MDA-MB-468 human breast cancer xenografts; test: MDA-MB-468 human breast cancer xenografts in nude mice; assay type: in vivo; details: 20 μg daily s.c., 5 weeks
Procedure: Nude mice bearing MDA-MB-468 hormone-independent human breast cancer xenografts were divided into groups of 10 animals each. The treated groups received single daily s.c. injections of 20 μg of GH-RH antagonists. One group was treated with Peptide 1, a second group was treated with MZ-5-156 for comparison. The control group was injected with the vehicle solvent. The treatment was continued for 5 weeks. Tumors were measured once a week and tumor volume was calculated. The mice were sacrificed at the end of experiment and tumor weights were measured.

[3] = test system: HT-29 human colon cancers; test: HT-29 human colon cancer xenografts in nude mice; assay type: in vivo; details: 20 μg daily sc., 6 weeks
Procedure: HT-29 human colon cancers were transplanted sc. into male nude mice. 19 days after transplantation, the mice were divided into groups of 10 animals each, and the treatment was started. The mice received single daily injections of various GH-RH antagonists sc. at 20 μg dose per day for 6 weeks. Tumors were measured regularly, and tumor volume was calculated. The mice were sacrificed at the end of experiment and tumor weights were measured.

[4] = test system: PC-3 human prostate cancer xenografts; test: PC-3 human prostate cancer xenografts in nude mice; assay type: in vivo; details: 20 μg daily s.c., 21 days
Procedure: Male nude mice were implanted s.c. with 3 mm^3 pieces of PC-3 human hormone-independent prostate cancer tissue into both flanks. When tumors reached a volume of approx. 40–50 mm^3 the mice were divided into 3 experimental groups. The first and second groups were treated with peptides Peptide 3 and MZ-5-156, respectively, in single daily s.c. injections of 20 μg for 21 days, while the third group served as control. Tumor volumes were measured at weekly intervals, tumor weights were measured at the end of experiment.

[5] = test system: mammary (MDA-MB-468, ZR-75-1), prostatic (PC-3 and DU-145), and pancreatic (MiaPaCa-2, SW-1990 and Capan-2) cancer cell lines; details: MDA-MB-468, ZR-75-1, PC-3, DU-145, MiaPaCa-2, SW-1990, Capan-2; cited from earlier work
[6] = test system: IGF-II; details: same cancer cell lines in vitro; cited from earlier work

[PhAc^0, D-Arg^2, Abu^15, Nle^27]hGH-RH(1–28) Agm [MZ-5-156, reference compound]
Inhibitory effect on MXT mouse mammary cancers (in words) ([1]; 18 days): significant inhibition of tumor growth
Tumor volume (mm^3) On day 14 ([1]; single daily sc. injections): 2717 ± 773 mm^3
Tumor volume (mm^3) On day 18 ([1]; single daily sc. injections): 5368 ± 408* mm^3
Tumor weights ([1]; single daily sc. injections, day 18): 4885 ± 480 mg
Number of surviving mice ([1]; single daily sc. injections, groups of 10): 4
Final tumor volume (mm^3) ([2]; nude mice): 104.4 ± 32.2** mm^3
Tumor weight ([2]; nude mice): 77.7 ± 31.7 mg
Number of regressed tumors ([2]; groups of 10): 3
Inhibitory effect on HT-29 human colon cancers (in words) [3]: equally strong inhibitory effect
Final tumor volume (mm^3) ([3]; nude mice): 908 ± 195* mm^3
Tumor weight ([3]; nude mice): 1012 ± 174 mg
Inhibition in tumor volume [4]: 52%
Inhibition in tumor weight [4]: 46%
Final tumor volume (mm^3) ([4]; nude mice): 148.9 ± 41 mm^3
Tumor weight ([4]; nude mice): 104.3 ± 27.2 mg
Rate of proliferation of cancer cell lines in vitro [5]: significantly inhibited
Expression of IGF-II mRNA in the cells and concentration of IGF-II secreted into the culture medium [6]: reduced
